Test results taken from patent US20030162692A1, “Follicle stimulating hormone stimulated genes and uses thereof” (priority 2000, published 2003).

Tested on: Y-1 (ATCC Accession No. CCL 79) cells
Experiment: GEM (Gene Expression Microarray) expression profile of treated vs control Y1 cells, Incyte mouse cDNA array
Assay type: cell-based
Settings: 16 hours; for number of common genes upregulated by FSH, 024 & forskolin: Y1 cells, FSH 10^-9 M, 024 1 uM, Forskolin 1 uM
Description: A mouse cDNA array from Incyte, Inc. was used to analyze the expression profile of Y-1 (ATCC Accession No. CCL 79) cells. This transcriptional profile analysis led to the identification of the FSH or FSH Mimetic stimulated genes of the invention.
Y1 cells were incubated with Ham's F-10 Nutrient Mixture Media supplemented with glutamine (1%), G418 geneyticin (80 ug/ml), penicillin-streptomycin (1%), fetal horse serum (15%), and fetal bovine serum (2.5%) and grown to confluency. Confluent cells were then exposed to FSH at 10^-9 M (See Table 1) or FSH Mimetic 024 at 1 uM (see Table 3), Forskolin at 1 uM (See Table 4) and all three agents (i.e., FSH at 10^−9 M, FSH Mimetic 024 at 1 uM and Forskolin at 1 uM—See Table 2) for 16 hours. Total RNA was isolated from control or treated cells with ULTRASPEC™ RNA from Biotech Laboratories, Inc. All media and supplements were obtained from Gibco BRL Life Technologies.
The GEM (Gene Expression Microarray) technology uses the following steps to discover differences in gene expression between two messenger RNA (mRNA) samples. Small samples of cDNA were deposited on a glass surface and bonded to the glass. Subsequently, large portions from one half of the DNA's double strands were removed in order to activate the individual elements of the array, preparing them to react and bind to their uniquely matched DNA counterparts in the cells being tested.
Two mRNA samples were prepared and color labeled, since the GEM technology uses a color coding technique to discover the differences in gene expression between two mRNA samples. […]
The two fluorescent probe samples were simultaneously applied to a single microarray, where they competitively react with the arrayed cDNA molecules. […] The intensity of the fluorescence at each array element is proportional to the expression level of that gene in the sample. […] The ratio of the two fluorescent intensities provided a quantitative measurement of the relative gene expression level in the two cell samples. […]

Compound | number of common genes upregulated by FSH, 024 & forskolin | number of genes regulated in Y1 cells (FSH at 10^-9 M)
C=C[C@@]1(C)CC(=O)[C@]2(O)[C@@]3(C)[C@@H](O)CCC(C)(C)[C@@H]3[C@H](O)[C@H](OC(C)=O)[C@@]2(C)O1 [Forskolin, reference compound] | 64 common genes upregulated by FSH, 024 & forskolin | 
Follicle Stimulating Hormone [FSH] | 64 common genes upregulated by FSH, 024 & forskolin | FSH regulats 189 genes in Y1 cells
